Source: PMC12603070, “A high-throughput screening approach to discover potential colorectal cancer chemotherapeutics: repurposing drugs to identify novel disruptors of 14-3-3 proteins” (Cell Death & Disease, 2025)
Like-named read-outs stand apart in the source and are kept apart here.

What was measured:
[1] = system: Caco-2 cells; format: cell-based; details: for Percentage of cell death % 24h CACO-2: 20 µM; for Percentage of cell death % 48h, Caco-2: 20 μM
Excerpt: (§1) A high-content imaging system (PerkinElmer; Operetta CLS), was used to quantify cell death and apoptosis by calculating the number of propidium iodide-positive cells relative to Hoechst-positive cells, and the number of Annexin V-positive cells relative to Hoechst-positive cells, respectively.

[2] = system: NIH-3T3 cells; test: Hoechst/propidium iodide cell death assay in NIH-3T3; format: cell-based; details: for cytotoxicity at 20 µM: Mus musculus, NIH3T3, 24 h, read-out: Percentage of cell death % 24h NIH3t3
Excerpt: as §1

[3] = system: HT-29 cells; test: Hoechst/propidium iodide cell death assay in HT-29; format: cell-based, human; details: for cytotoxicity at 20 µM: Homo sapiens; for %Cell death HT-29: time not given
Excerpt: as §1

[4] = target: T1, 14-3-3ζ:BAD-112-136F interactions (Homo sapiens, UniProt P63104); test: BRET sensor screen for disruption of 14-3-3ζ-Rluc8:BAD-112-136F-mCitrine in living NIH-3T3 cells; format: cell-based, murine; design: inhibition: dose or concentration left out as unconfirmed; BRET reduction on NIH-3T3: unit not given here; details: for inhibition / inhibition at 20 µM: NIH3T3, 3 h, read-out: BRET reduction on NIH-3T3
T1 construct: expressed in transfected cells; host or cells: NIH-3T3 fibroblasts, bi-directional pBI-CMV1 plasmid
T1 sequence (P63104 1-245): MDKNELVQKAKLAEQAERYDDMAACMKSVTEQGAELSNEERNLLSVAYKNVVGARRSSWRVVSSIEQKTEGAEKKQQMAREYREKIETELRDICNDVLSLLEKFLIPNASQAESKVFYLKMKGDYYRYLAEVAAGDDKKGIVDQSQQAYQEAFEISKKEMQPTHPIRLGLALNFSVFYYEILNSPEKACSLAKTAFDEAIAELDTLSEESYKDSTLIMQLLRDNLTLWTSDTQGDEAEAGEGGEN
Procedure, shortened: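 NIH-3T3 cells were transfected with the BRET sensor two days beforehand, then replated on poly-L-ornithine-coated plates and grown 24 h at 37 °C. Medium was then replaced with Krebs buffer (pH 7.4). Z′-score was calculated to judge HTS robustness.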

[5] = system: HT-29 and Caco-2 CRC cells; test: Cell death in CRC cells, statements covering both HT-29 and Caco-2 (screen at 20 µM, dose-response); format: cell-based, human
Description: Cells were plated at a density of 20,000 cells/well into 96-well plates (PerkinElmer; #6055302) and incubated overnight at 37 °C before the addition of the drugs. One hour prior to imaging, Hoechst 33342 (Invitrogen, #H3570) and propidium iodide (Invitrogen; #P3566) were added to the wells to achieve final concentrations of 50 ng/ml and 0.5 μg/ml, respectively. To measure apoptosis, AlexaFluor 488-conjugated Annexin V (ThermoFisher, Massachusetts, USA; #A13201) was also added at a dilution of 1:400 from the commercial stock. A high-content imaging system (PerkinElmer; Operetta CLS), was used to quantify cell death and apoptosis by calculating the number of propidium iodide-positive cells relative to Hoechst-positive cells, and the number of Annexin V-positive cells relative to Hoechst-positive cells, respectively. To assess caspase-dependent apoptosis, cells were pre-treated for 30 min with the caspase inhibitor Z-VAD-FMK (BD Biosciences, New Jersey, USA; #550377; 20 μM) or the negative control Z-FA-FMK (BD Biosciences; #550411; 20 μM) prior to the incubation of drugs.

[6] = HT-29, 24 h, 20 µM, 24 h, read-out: Percentage of cell death % 24h HT-29
[7] = HT-29, 48 h, HT-29, 48h, 20 μM, read-out: Percentage of cell death % 48h, HT-29
[8] = NIH-3T3 cells, hits from the primary screen
[9] = NIH-3T3 expressing BRET sensor, 20 µM, 3 h
[10] = HT-29, 24 h, read-out: Percentage of cell death % 24h HT-29
[11] = HT-29, 48 h, read-out: Percentage of cell death % 48h, HT-29

Compound	Percentage of cell death % 24h CACO-2 [1] [%]	Percentage of cell death % 48h, Caco-2 [1] [%]	cytotoxicity at 20 µM ([2]; 20 µM, 24 h) [%]	Percentage of cell death % 48h, NIH3T3 [2] [%]	cytotoxicity at 20 µM [3, 6] [%]	cytotoxicity at 20 µM [3, 7] [%]	inhibition [4, 8] [%]	inhibition at 20 µM [4, 9] [%]	%Cell death HT-29 ([3]; HT-29) [%]	BRET reduction on NIH-3T3 [4, 8]	%Cell death Caco-2 ([1]; time not given, text says 48 h) [%]	other results
COc1cc(C(=O)O)ccc1NC(=O)[C@@H]1N[C@@H](CC(C)(C)C)[C@](C#N)(c2ccc(Cl)cc2F)[C@H]1c1cccc(Cl)c1F [RG7388]	4.882	4.655	35.1	20.6788	9.54	50	41.6	41.6				
C[C@H]1O[C@@H](O[C@H]2CC[C@@]3(C)[C@@H](CC[C@]4(C)[C@@H]3C=C[C@]35OC[C@@]6(CCC(C)(C)C[C@H]63)[C@@H](O)C[C@]54C)[C@]2(C)CO)[C@H](O)[C@@H](O[C@@H]2O[C@H](CO)[C@@H](O)[C@H](O)[C@H]2O)[C@H]1O [Saikosaponin A]				80.787					87.6	53.7827		%Cell death Caco-2 [1]: 1.2%; cytotoxicity at 20 µM [2]: 80.7%; cytotoxicity at 20 µM [3, 10]: 93.8%; cytotoxicity at 20 µM [3, 11]: 87.6%; inhibition at 20 µM [4]: 53.8%
COc1ccc2c(O[C@@H]3C[C@H]4C(=O)N[C@]5(C(=O)NS(=O)(=O)C6CC6)C[C@H]5/C=C\CCCCN(C)C(=O)[C@@H]4C3)cc(-c3nc(C(C)C)cs3)nc2c1C [Simeprevir]	3.948	5.542	19.3	93.5636	38.8	70.9	42.6	42.6	70.9		5.5	
CCCSc1nc(N[C@@H]2C[C@H]2c2ccc(F)c(F)c2)c2nnn([C@@H]3C[C@H](OCCO)[C@@H](O)[C@H]3O)c2n1 [Ticagrelor]	3.005	3.049	13.7	5.069	1.2	3.67	25.6	25.6				
COc1cc2nccc(Oc3ccc(NC(=O)Nc4cc(C)on4)c(Cl)c3)c2cc1OC [Tivozanib (AV-951), Tivozanib]	5.391	6.001	10.8	31.2285	1.65	23	26.5	26.5				
Oc1cc(Cl)ccc1Oc1ccc(Cl)cc1Cl [Triclosan]	23.0449	14.8508		20.8092						35.6098		cytotoxicity at 20 µM [2]: 58.2%; cytotoxicity at 20 µM [3, 10]: 20.3%; cytotoxicity at 20 µM [3, 11]: 21.6%; inhibition at 20 µM [4]: 35.6%
CC(C)(C)C#Cc1cc(N(C(=O)[C@H]2CC[C@H](C)CC2)[C@H]2CC[C@H](O)CC2)c(C(=O)O)s1 [VX-222 (VCH-222, Lomibuvir), Lomibuvir]	4.951	36.3165	5.5	38.6762	3.68	78.5	41.6	41.6	78.5		36.3	Lowest concentration that significantly induced cell death ([5]; dose-response 2.5-20 µM in HT-29 and Caco-2): 5 µM; Efficacy in the magnitude of cell death attained ([5]; dose-response in CRC cells): inferior to other candidates
Cc1ccc(Sc2ccccc2N2CCNCC2)c(C)c1 [Vortioxetine (Lu AA21004) HBr, Vortioxetine]	33.0298	76.1709	78.5	71.7539	7.35	52.1	35.4	35.4	52.1		52.1	
Ivermectin	4.453	5.173		70.901					78.9	41.4556	5.2	Percentage of cell death % 24h NIH3t3 ([2]; 20 µM, 24 h): 38.0218%; Percentage of cell death % 24h HT-29 ([3]; 20 µM, 24 h): 6.036%; Percentage of cell death % 48h, HT-29 ([3]; HT-29, 48h, 20 μM): 78.9396%; BRET reduction on NIH-3T3 [4, 9]: 41.4556
